Assay results as given in article PMC5218480 (PLoS ONE, 2017).

Tested on: MV-4-11 cells
Assay: Gene expression microarray analysis (Affymetrix PrimeView) and GSEA
Format: cell-based, human
Set-up: RFU PODN (11730768_x_at) / Fold change /veh PODN (11730768_x_at) / RFU LINC00158 (11744669_a_at) / Fold change /veh LINC00158 (11744669_a_at) / RFU DUSP10 (11751237_a_at) / Fold change /veh DUSP10 (11751237_a_at) / RFU ID3 (11757404_x_at) / Fold change /veh ID3 (11757404_x_at) / RFU PLEKHG5 (11737974_s_at) / Fold change /veh PLEKHG5 (11737974_s_at) / RFU LRRC4B (11730491_at) / Fold change /veh LRRC4B (11730491_at) / RFU GIMAP4 (11747438_a_at) / Fold change /veh GIMAP4 (11747438_a_at) / RFU KRT8 (11758183_x_at) / Fold change /veh KRT8 (11758183_x_at) / RFU CNN1 (11734310_a_at) / Fold change /veh CNN1 (11734310_a_at) / RFU VPS37D (11726825_at) / Fold change /veh VPS37D (11726825_at) / RFU C10orf10 (11716522_x_at) / Fold change /veh C10orf10 (11716522_x_at) / RFU KIR2DL2 /// KIR2DL4 /// KIR2DL5A /// KIR2DL5B /// KIR2DS1 /// KIR2DS2 /// KIR2DS3 /// KIR2DS4 /// KIR3DL3 /// KIR3DL3 /// KIR3DS1 (11738374_at) / Fold change /veh KIR2DL2 /// KIR2DL4 /// KIR2DL5A /// KIR2DL5B /// KIR2DS1 /// KIR2DS2 /// KIR2DS3 /// KIR2DS4 /// KIR3DL3 /// KIR3DL3 /// KIR3DS1 (11738374_at) / RFU C1QL1 (11718748_at) / Fold change /veh C1QL1 (11718748_at) / RFU TMPRSS4 (11747572_a_at) / Fold change /veh TMPRSS4 (11747572_a_at) / RFU HAMP (11756126_x_at) / Fold change /veh HAMP (11756126_x_at) / RFU RNFT2 (11725882_a_at) / Fold change /veh RNFT2 (11725882_a_at) / RFU NR4A2 (11747474_a_at) / Fold change /veh NR4A2 (11747474_a_at) / RFU ABCC12 (11746883_a_at) / Fold change /veh ABCC12 (11746883_a_at) / RFU TMEM136 (11760407_x_at) / Fold change /veh TMEM136 (11760407_x_at) / RFU CLDN22 /// WWC2 (11732394_at) / Fold change /veh CLDN22 /// WWC2 (11732394_at) / RFU HLA-DPB1 (11760878_x_at) / Fold change /veh HLA-DPB1 (11760878_x_at) / RFU SPINT1 (11716480_a_at) / Fold change /veh SPINT1 (11716480_a_at) / RFU GAP43 (11754022_s_at) / Fold change /veh GAP43 (11754022_s_at) / RFU A4GNT (11735810_at) / Fold change /veh A4GNT (11735810_at) / RFU PRB3 (11715151_x_at) / Fold change /veh PRB3 (11715151_x_at) / RFU TUBB4B (11761932_at) / Fold change /veh TUBB4B (11761932_at) / RFU CAPN14 (11732068_a_at) / Fold change /veh CAPN14 (11732068_a_at) / RFU TMCC2 (11721928_a_at) / Fold change /veh TMCC2 (11721928_a_at) / RFU IRGQ (11745062_a_at) / Fold change /veh IRGQ (11745062_a_at) / RFU FAM174B (11720279_a_at) / Fold change /veh FAM174B (11720279_a_at) / RFU TMPRSS4 (11748680_a_at) / Fold change /veh TMPRSS4 (11748680_a_at) / RFU FAM212B (11763350_a_at) / Fold change /veh FAM212B (11763350_a_at) / RFU PLEKHG5 (11743358_a_at) / Fold change /veh PLEKHG5 (11743358_a_at) / RFU ZSCAN30 (11745921_a_at) / Fold change /veh ZSCAN30 (11745921_a_at) / RFU CMKLR1 (11741424_a_at) / Fold change /veh CMKLR1 (11741424_a_at) / RFU LOC101060620 /// MAPK8IP1 (11723275_at) / Fold change /veh LOC101060620 /// MAPK8IP1 (11723275_at) / RFU SPTSSB (11747773_x_at) / Fold change /veh SPTSSB (11747773_x_at) / RFU PRSS12 (11739890_at) / Fold change /veh PRSS12 (11739890_at) / RFU BIN1 (11741810_x_at) / Fold change /veh BIN1 (11741810_x_at) / RFU WNT11 (11732464_a_at) / Fold change /veh WNT11 (11732464_a_at) / RFU C10orf10 (11716521_a_at) / Fold change /veh C10orf10 (11716521_a_at) / RFU C5orf56 (11738089_at) / Fold change /veh C5orf56 (11738089_at) / RFU CYB561 (11721691_x_at) / Fold change /veh CYB561 (11721691_x_at) / RFU ANKRD19P (11752326_a_at) / Fold change /veh ANKRD19P (11752326_a_at) / RFU OR2T12 /// OR2T33 /// OR2T8 (11738714_s_at) / Fold change /veh OR2T12 /// OR2T33 /// OR2T8 (11738714_s_at) / RFU VCAN (11748164_a_at) / Fold change /veh VCAN (11748164_a_at) / RFU JSRP1 (11732532_at) / Fold change /veh JSRP1 (11732532_at) / RFU KRTAP10-11 (11738290_x_at) / Fold change /veh KRTAP10-11 (11738290_x_at) / RFU MYO3A (11730013_a_at) / Fold change /veh MYO3A (11730013_a_at) / RFU EBF3 (11725865_a_at) / Fold change /veh EBF3 (11725865_a_at) / RFU CAMK2N1 (11719241_x_at) / Fold change /veh CAMK2N1 (11719241_x_at) / RFU C5orf56 (11738088_a_at) / Fold change /veh C5orf56 (11738088_a_at) / RFU OLFML3 (11715873_a_at) / Fold change /veh OLFML3 (11715873_a_at) / RFU LOC100653217 /// NTM (11731650_a_at) / Fold change /veh LOC100653217 /// NTM (11731650_a_at) / RFU MAPK11 (11762145_a_at) / Fold change /veh MAPK11 (11762145_a_at) / RFU FIZ1 (11724087_x_at) / Fold change /veh FIZ1 (11724087_x_at) / RFU OASL (11726364_x_at) / Fold change /veh OASL (11726364_x_at) / RFU SOX15 (11748057_x_at) / Fold change /veh SOX15 (11748057_x_at) / RFU CD79A (11719716_a_at) / Fold change /veh CD79A (11719716_a_at) / RFU HIST1H1D (11736915_at) / Fold change /veh HIST1H1D (11736915_at) / RFU CASKIN2 (11723855_a_at) / Fold change /veh CASKIN2 (11723855_a_at) / RFU LOC730098 (11760151_x_at) / Fold change /veh LOC730098 (11760151_x_at) / RFU OR4N2 (11742367_at) / Fold change /veh OR4N2 (11742367_at) / RFU PRRT2 (11749266_a_at) / Fold change /veh PRRT2 (11749266_a_at) / RFU SNX32 (11753110_a_at) / Fold change /veh SNX32 (11753110_a_at) / RFU CDHR5 (11726645_a_at) / Fold change /veh CDHR5 (11726645_a_at) / RFU RCAN1 (11760418_a_at) / Fold change /veh RCAN1 (11760418_a_at) / RFU FAM167A (11723789_a_at) / Fold change /veh FAM167A (11723789_a_at) / RFU FAM26E (11764081_at) / Fold change /veh FAM26E (11764081_at) / RFU ISYNA1 (11749810_s_at) / Fold change /veh ISYNA1 (11749810_s_at) / RFU ACY1 (11761880_at) / Fold change /veh ACY1 (11761880_at) / RFU 11764098_at / Fold change /veh 11764098_at / RFU SAMD14 (11745864_x_at) / Fold change /veh SAMD14 (11745864_x_at) / RFU NPB (11741838_a_at) / Fold change /veh NPB (11741838_a_at) / RFU TMPRSS6 (11731388_a_at) / Fold change /veh TMPRSS6 (11731388_a_at) / RFU KRTAP10-2 (11738614_at) / Fold change /veh KRTAP10-2 (11738614_at) / RFU ARHGAP8 /// PRR5-ARHGAP8 (11727945_x_at) / Fold change /veh ARHGAP8 /// PRR5-ARHGAP8 (11727945_x_at) / RFU KRTAP5-7 /// NADSYN1 (11734609_at) / Fold change /veh KRTAP5-7 /// NADSYN1 (11734609_at) / RFU RASL12 (11751679_a_at) / Fold change /veh RASL12 (11751679_a_at) / RFU CDKN2B (11736163_a_at) / Fold change /veh CDKN2B (11736163_a_at) / RFU PRF1 (11729649_at) / Fold change /veh PRF1 (11729649_at) / RFU, ZNF638 /// ZNF638-IT1 / Fold change vs veh, ZNF638 /// ZNF638-IT1 / RFU, PANK3 / Fold change vs veh, PANK3 / RFU, SH3YL1 / Fold change vs veh, SH3YL1 / RFU, ZEB2 / Fold change vs veh, ZEB2 / RFU, NRIP1 / Fold change vs veh, NRIP1 / RFU, PTTG1IP / Fold change vs veh, PTTG1IP / RFU, CAPN2 / Fold change vs veh, CAPN2 / RFU, MED14 / Fold change vs veh, MED14 / RFU, SNORA58 / Fold change vs veh, SNORA58 / RFU, C1orf63 / Fold change vs veh, C1orf63 / RFU, LRRFIP1 / Fold change vs veh, LRRFIP1 / RFU, NDUFAF7 / Fold change vs veh, NDUFAF7 / RFU, SLC12A2 / Fold change vs veh, SLC12A2 / RFU, IBTK / Fold change vs veh, IBTK / RFU, ESF1 / Fold change vs veh, ESF1 / Fold change vs veh, TMEM50B / RFU, TAOK1 / Fold change vs veh, TAOK1 / RFU, ACBD3 / Fold change vs veh, ACBD3 / RFU, TMA16 / Fold change vs veh, TMA16 / RFU, RWDD3 / Fold change vs veh, RWDD3 / RFU, BCAT1 / Fold change vs veh, BCAT1 / RFU, EDEM3 / Fold change vs veh, EDEM3 / RFU, TMEM33 / Fold change vs veh, TMEM33 / RFU, WDR75 / Fold change vs veh, WDR75 / RFU, AHCTF1 / Fold change vs veh, AHCTF1 / RFU, TFRC / Fold change vs veh, TFRC / RFU, ZDHHC17 / Fold change vs veh, ZDHHC17 / RFU, NOM1 / Fold change vs veh, NOM1 / RFU, ARL8B / Fold change vs veh, ARL8B / RFU, ZBTB11 / Fold change vs veh, ZBTB11 / RFU, TAMM41 / Fold change vs veh, TAMM41 / RFU, KIAA1704 /// LOC100996395 / Fold change vs veh, KIAA1704 /// LOC100996395 / RFU, ING1 / Fold change vs veh, ING1 / RFU, TRMT61B / Fold change vs veh, TRMT61B / RFU, FUBP3 / Fold change vs veh, FUBP3 / RFU, TP53 / Fold change vs veh, TP53 / RFU, TNKS2 / Fold change vs veh, TNKS2 / RFU, ZFP14 / Fold change vs veh, ZFP14 / RFU, ACTR2 / Fold change vs veh, ACTR2 / RFU, PPP3R1 / Fold change vs veh, PPP3R1 / RFU, PIK3R1 / Fold change vs veh, PIK3R1 / RFU, HNRNPA1 / Fold change vs veh, HNRNPA1 / RFU, RNF170 / Fold change vs veh, RNF170 / RFU, ZNF28 / Fold change vs veh, ZNF28 / RFU, RNGTT / Fold change vs veh, RNGTT / RFU, OGT / Fold change vs veh, OGT / RFU, BRD1 / Fold change vs veh, BRD1 / RFU, MARS / Fold change vs veh, MARS / RFU, ZNF655 / Fold change vs veh, ZNF655 / RFU, FAHD1 / Fold change vs veh, FAHD1 / RFU, BDP1 / Fold change vs veh, BDP1 / RFU, LRRCC1 / Fold change vs veh, LRRCC1 / RFU, ARID1A / Fold change vs veh, ARID1A / RFU, ZNF146 / Fold change vs veh, ZNF146 / RFU, ZNF330 / Fold change vs veh, ZNF330 / RFU, GPN3 / Fold change vs veh, GPN3 / RFU, C9orf123 / Fold change vs veh, C9orf123 / RFU, N4BP2L2 / Fold change vs veh, N4BP2L2 / RFU, ARFIP1 / Fold change vs veh, ARFIP1 / RFU, FAM179B / Fold change vs veh, FAM179B / RFU, BCL10 / Fold change vs veh, BCL10 / RFU, UHRF1BP1L / Fold change vs veh, UHRF1BP1L / RFU, BET1 / Fold change vs veh, BET1 / RFU, CNOT2 / Fold change vs veh, CNOT2 / RFU, ZNF268 / Fold change vs veh, ZNF268 / Fold change vs veh, ZNF507 / RFU, DGCR2 / Fold change vs veh, DGCR2 / RFU, WDSUB1 / Fold change vs veh, WDSUB1 / Fold change vs veh, HSP90B1 /// MIR3652 / RFU, ADSS / Fold change vs veh, ADSS / RFU, GK / Fold change vs veh, GK / RFU, ZNF148 / Fold change vs veh, ZNF148 / RFU, TAF9 / Fold change vs veh, TAF9 / RFU, SLC1A5 / Fold change vs veh, SLC1A5 / RFU, SLMO2 / Fold change vs veh, SLMO2 / RFU, ABCC4 / Fold change vs veh, ABCC4 / RFU, LOC101060439 /// RAP1B / Fold change vs veh, LOC101060439 /// RAP1B / RFU, RFX7 / Fold change vs veh, RFX7 / RFU, GTPBP10 / Fold change vs veh, GTPBP10 / RFU, CNEP1R1 / Fold change vs veh, CNEP1R1 / RFU, BIVM-ERCC5 /// ERCC5 / Fold change vs veh, BIVM-ERCC5 /// ERCC5 / RFU, ILF3 / Fold change vs veh, ILF3 / RFU 11762660_at / Fold change /veh 11762660_at / RFU VCAN (11757783_s_at) / Fold change /veh VCAN (11757783_s_at) / RFU DDX43 (11728927_at) / Fold change /veh DDX43 (11728927_at) / RFU KRT8 (11758188_x_at) / Fold change /veh KRT8 (11758188_x_at) / RFU NKD1 (11759106_at) / Fold change /veh NKD1 (11759106_at) / RFU SRD5A1 (11742802_a_at) / Fold change /veh SRD5A1 (11742802_a_at) / RFU TPSAB1 /// TPSB2 (11721975_s_at) / Fold change /veh TPSAB1 /// TPSB2 (11721975_s_at) / RFU GSTM3 (11746129_a_at) / Fold change /veh GSTM3 (11746129_a_at) / RFU IL23R (11737362_x_at) / Fold change /veh IL23R (11737362_x_at) / RFU TMEM51 (11727254_a_at) / Fold change /veh TMEM51 (11727254_a_at) / RFU PIWIL2 (11732686_x_at) / Fold change /veh PIWIL2 (11732686_x_at) / RFU ORM1 (11744905_x_at) / Fold change /veh ORM1 (11744905_x_at) / RFU CCDC152 (11743942_at) / Fold change /veh CCDC152 (11743942_at) / RFU ECM1 (11717891_a_at) / Fold change /veh ECM1 (11717891_a_at) / RFU IL23R (11748794_a_at) / Fold change /veh IL23R (11748794_a_at) / RFU TNFAIP8L3 (11732012_x_at) / Fold change /veh TNFAIP8L3 (11732012_x_at) / RFU MBOAT4 (11741988_at) / Fold change /veh MBOAT4 (11741988_at) / RFU 11764193_at / Fold change /veh 11764193_at / RFU TMEM53 (11763286_at) / Fold change /veh TMEM53 (11763286_at) / RFU MAGEB2 (11727129_at) / Fold change /veh MAGEB2 (11727129_at) / RFU TMEM200A (11744735_a_at) / Fold change /veh TMEM200A (11744735_a_at) / RFU CCDC152 (11751479_a_at) / Fold change /veh CCDC152 (11751479_a_at) / RFU FAM211A (11726209_a_at) / Fold change /veh FAM211A (11726209_a_at) / RFU RGS16 (11746705_a_at) / Fold change /veh RGS16 (11746705_a_at) / RFU VCAN (11755009_s_at) / Fold change /veh VCAN (11755009_s_at) / RFU RHOB (11743442_s_at) / Fold change /veh RHOB (11743442_s_at) / RFU RGS16 (11720943_a_at) / Fold change /veh RGS16 (11720943_a_at) / RFU RGS16 (11720944_at) / Fold change /veh RGS16 (11720944_at) / RFU, VPS4B / Fold change vs veh, VPS4B / RFU, CREB1 / Fold change vs veh, CREB1 / RFU, DNAJC13 / Fold change vs veh, DNAJC13 / RFU, GNAQ / Fold change vs veh, GNAQ / RFU, CDK5R1 / Fold change vs veh, CDK5R1 / RFU, ZRANB3 / Fold change vs veh, ZRANB3 / RFU, CUL4A / Fold change vs veh, CUL4A / RFU, CCNY / Fold change vs veh, CCNY / RFU, UFL1 / Fold change vs veh, UFL1 / RFU, COG3 / Fold change vs veh, COG3 / RFU, DIAPH2 / Fold change vs veh, DIAPH2 / RFU, SKA2 / Fold change vs veh, SKA2 / RFU, AFF3 / Fold change vs veh, AFF3 / RFU, LMF1 / Fold change vs veh, LMF1 / RFU, IPO11 / Fold change vs veh, IPO11 / RFU, DFFB / Fold change vs veh, DFFB / RFU, FOXP1 / Fold change vs veh, FOXP1 / RFU, CARD8 / Fold change vs veh, CARD8 / RFU, STRN3 / Fold change vs veh, STRN3 / RFU, ADK / Fold change vs veh, ADK / RFU, RASSF2 / Fold change vs veh, RASSF2 / RFU, WIPF1 / Fold change vs veh, WIPF1 / RFU, LARP1B / Fold change vs veh, LARP1B / RFU, RASA1 / Fold change vs veh, RASA1 / RFU, RB1 / Fold change vs veh, RB1 / RFU, PPFIA1 / Fold change vs veh, PPFIA1 / RFU, MAT2A / Fold change vs veh, MAT2A / RFU, CCT5 / Fold change vs veh, CCT5 / RFU, WDR92 / Fold change vs veh, WDR92 / RFU, CUX1 / Fold change vs veh, CUX1 / RFU, TTC7A / Fold change vs veh, TTC7A / RFU, TMEM135 / Fold change vs veh, TMEM135 / RFU, DEPTOR / Fold change vs veh, DEPTOR / RFU, CPM / Fold change vs veh, CPM / RFU, DNAJB6 / Fold change vs veh, DNAJB6 / RFU, CACNA2D3 / Fold change vs veh, CACNA2D3 / RFU, DTX4 / Fold change vs veh, DTX4 / RFU, TFCP2 / Fold change vs veh, TFCP2 / RFU, GMCL1 /// GMCL1P1 / Fold change vs veh, GMCL1 /// GMCL1P1 / RFU, AEBP2 / Fold change vs veh, AEBP2 / RFU, SNHG1 /// SNORD22 /// SNORD25 /// SNORD26 /// SNORD27 /// SNORD28 /// SNORD29 /// SNORD31 / Fold change vs veh, SNHG1 /// SNORD22 /// SNORD25 /// SNORD26 /// SNORD27 /// SNORD28 /// SNORD29 /// SNORD31 / Fold change (Aza/veh), C12orf56 (ProbeSet 11735607_a_at) / Fold change (ACY-1035/veh), C12orf56 (ProbeSet 11735607_a_at) / Fold change (Aza/veh), FGFR1OP (ProbeSet 11751329_s_at) / Fold change (ACY-1035/veh), FGFR1OP (ProbeSet 11751329_s_at) / Fold change (Aza/veh), VPS36 (ProbeSet 11739960_a_at) / Fold change (ACY-1035/veh), VPS36 (ProbeSet 11739960_a_at) / RFU SYPL1 (11715823_x_at) / Fold change /veh SYPL1 (11715823_x_at) / RFU IGFBP7 (11715501_s_at) / Fold change /veh IGFBP7 (11715501_s_at) / RFU REEP3 (11722064_at) / Fold change /veh REEP3 (11722064_at) / RFU IGLL1 (11728026_x_at) / Fold change /veh IGLL1 (11728026_x_at): dose or concentration left out as unconfirmed
Settings: MV-4-11 cells, 48 hours

Nc1ncn([C@@H]2O[C@H](CO)[C@@H](O)[C@H]2O)c(=O)n1 [azacitidine]
RFU SPINT1 (11716480_a_at): 23.10 RFU
